In ChEMBL document CHEMBL1133866, “Discovery of human CCR5 antagonists containing hydantoins for the treatment of HIV-1 infection” (Bioorg Med Chem Lett, 2001):

Columns and labels:
[1] = target: T1, C-C chemokine receptor type 3 (Homo sapiens, UniProt P51677); assay: Inhibitory activity against C-C chemokine receptor type 3
T1 sequence (P51677 whole entry): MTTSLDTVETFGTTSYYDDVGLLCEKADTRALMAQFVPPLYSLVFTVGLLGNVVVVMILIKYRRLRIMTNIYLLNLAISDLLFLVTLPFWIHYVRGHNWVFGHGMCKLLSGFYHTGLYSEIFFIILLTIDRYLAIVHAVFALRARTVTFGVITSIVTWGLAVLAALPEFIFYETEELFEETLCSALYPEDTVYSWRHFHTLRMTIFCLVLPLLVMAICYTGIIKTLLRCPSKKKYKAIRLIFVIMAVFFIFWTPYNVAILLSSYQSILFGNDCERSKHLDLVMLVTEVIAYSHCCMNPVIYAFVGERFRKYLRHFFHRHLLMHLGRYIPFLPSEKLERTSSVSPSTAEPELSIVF

[2] = target: T2, C-C chemokine receptor type 1 (Homo sapiens, UniProt P32246); assay: Inhibitory activity against C-C chemokine receptor type 1
T2 sequence (P32246 whole entry): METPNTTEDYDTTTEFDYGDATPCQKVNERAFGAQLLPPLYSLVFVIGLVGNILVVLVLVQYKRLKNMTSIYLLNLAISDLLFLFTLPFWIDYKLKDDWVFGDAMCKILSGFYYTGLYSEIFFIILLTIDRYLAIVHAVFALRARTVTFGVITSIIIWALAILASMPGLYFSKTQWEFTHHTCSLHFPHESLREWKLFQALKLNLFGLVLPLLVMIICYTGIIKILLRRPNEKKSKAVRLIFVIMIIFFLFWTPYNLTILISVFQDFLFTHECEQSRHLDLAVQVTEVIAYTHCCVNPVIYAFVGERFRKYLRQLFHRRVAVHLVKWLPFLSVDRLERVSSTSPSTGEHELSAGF

[3] = target: C-X-C chemokine receptor type 4 (Homo sapiens, UniProt P61073); assay: Inhibitory activity against C-X-C chemokine receptor type 4
Sequence of C-X-C chemokine receptor type 4 (P61073 whole entry): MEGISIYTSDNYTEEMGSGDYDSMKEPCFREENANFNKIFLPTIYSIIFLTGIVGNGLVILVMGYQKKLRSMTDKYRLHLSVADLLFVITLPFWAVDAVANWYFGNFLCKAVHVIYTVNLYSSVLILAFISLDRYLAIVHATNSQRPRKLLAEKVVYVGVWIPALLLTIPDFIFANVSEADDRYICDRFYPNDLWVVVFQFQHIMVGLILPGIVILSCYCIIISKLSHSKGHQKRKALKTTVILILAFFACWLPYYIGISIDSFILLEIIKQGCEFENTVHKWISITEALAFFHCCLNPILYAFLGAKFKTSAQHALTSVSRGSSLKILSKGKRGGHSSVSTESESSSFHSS

[4] = target: T3, C-C chemokine receptor type 5 (Homo sapiens, UniProt P51681); assay: Binding affinity against C-C chemokine receptor type 5 stably expressed in Chinese hamster ovary (CHO) cells using [125I]-MIP-1 alpha as the radioligand; assay type: cell-based
Target sequence in this assay (P51681 whole entry): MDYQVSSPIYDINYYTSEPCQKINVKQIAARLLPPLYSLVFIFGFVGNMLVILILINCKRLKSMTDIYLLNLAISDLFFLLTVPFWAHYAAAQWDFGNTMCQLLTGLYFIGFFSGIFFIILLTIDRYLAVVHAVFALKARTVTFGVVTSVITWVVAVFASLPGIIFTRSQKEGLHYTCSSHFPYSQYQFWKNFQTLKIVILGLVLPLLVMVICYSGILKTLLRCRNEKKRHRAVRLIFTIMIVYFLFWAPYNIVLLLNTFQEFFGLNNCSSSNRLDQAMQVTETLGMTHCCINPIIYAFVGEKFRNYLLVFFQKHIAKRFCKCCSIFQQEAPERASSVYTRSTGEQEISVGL

[5] = target: T4, C-C chemokine receptor type 4 (Homo sapiens, UniProt P51679); assay: Inhibitory activity against C-C chemokine receptor type 4
T4 sequence (P51679 whole entry): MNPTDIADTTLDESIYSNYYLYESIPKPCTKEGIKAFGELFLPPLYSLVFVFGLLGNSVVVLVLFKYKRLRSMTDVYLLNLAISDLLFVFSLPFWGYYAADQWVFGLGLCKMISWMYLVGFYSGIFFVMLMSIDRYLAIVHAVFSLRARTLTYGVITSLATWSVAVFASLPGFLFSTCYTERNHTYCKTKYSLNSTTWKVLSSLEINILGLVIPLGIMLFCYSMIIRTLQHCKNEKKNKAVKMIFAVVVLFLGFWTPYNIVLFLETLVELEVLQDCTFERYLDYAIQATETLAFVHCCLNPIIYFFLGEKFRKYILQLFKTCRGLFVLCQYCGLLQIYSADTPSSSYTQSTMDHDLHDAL

[6] = test system: Human immunodeficiency virus 1; assay: Antiviral activity against HIV-1 viral replication in isolated peripheral blood mononuclear cells (PBMCs).; assay type: functional
[7] = target: C-C chemokine receptor type 2 (Homo sapiens, UniProt P41597); assay: Inhibitory activity against C-C chemokine receptor type 2
Sequence of C-C chemokine receptor type 2 (P41597 whole entry): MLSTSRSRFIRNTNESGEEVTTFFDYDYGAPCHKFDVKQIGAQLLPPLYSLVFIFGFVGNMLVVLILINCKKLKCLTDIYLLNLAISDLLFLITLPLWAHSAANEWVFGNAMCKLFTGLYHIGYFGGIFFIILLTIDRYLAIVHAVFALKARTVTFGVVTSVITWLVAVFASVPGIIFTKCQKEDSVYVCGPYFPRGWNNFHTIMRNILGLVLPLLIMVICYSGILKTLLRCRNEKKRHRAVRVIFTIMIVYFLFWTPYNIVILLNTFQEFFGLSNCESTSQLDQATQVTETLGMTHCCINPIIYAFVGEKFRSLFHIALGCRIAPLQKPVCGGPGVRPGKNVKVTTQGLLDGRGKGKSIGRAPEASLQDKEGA

[8] = target: T3, C-C chemokine receptor type 5; assay: Percent inhibition of the [125I]-MIP-1 alpha binding towards C-C chemokine receptor type 5 stably expressed in Chinese hamster ovary (CHO) cells at a concentration of 1 uM; assay type: cell-based
Target sequence in this assay (P51681 whole entry, looked up): as the sequence (P51681 whole entry) above

[9] = target: T3, C-C chemokine receptor type 5; assay: Percent inhibition of the [125I]-MIP-1 alpha binding towards C-C chemokine receptor type 5 stably expressed in Chinese hamster ovary (CHO) cells at a concentration of 10 uM; assay type: cell-based
Target sequence in this assay (P51681 whole entry, looked up): as the sequence (P51681 whole entry) above

[10] = target: T3, C-C chemokine receptor type 5; assay: Percent inhibition of the [125I]-MIP-1 alpha binding towards C-C chemokine receptor type 5 stably expressed in Chinese hamster ovary (CHO) cells at a concentration of 1.7 uM; assay type: cell-based
Target sequence in this assay (P51681 whole entry, looked up): as the sequence (P51681 whole entry) above

Compound `C=CCN(C(=O)OCc1ccccc1)C1CCN(CCC(CN2C(=O)N[C@H](Cc3c[nH]c4ccccc34)C2=O)c2ccccc2)CC1` (stereo partly drawn) has an IC50 [1] of over 1000 nM, an IC50 [2] of over 1000 nM and an IC50 [3] of over 1000 nM. The IC50 [4] was 7 nM, the IC50 [5] was over 1000 nM and the IC95 [6] was over 3000 nM. For the same compound, the IC50 [7] was over 1000 nM.

`O=C1N[C@H](Cc2c[nH]cn2)C(=O)N1CC(CCN1CCC(c2ccccc2)CC1)c1ccccc1` (stereo partly drawn) was tested, and the inhibition [8] was 25%.

Compound `C[C@H]1NC(=O)N(CC(CCN2CCC(c3ccccc3)CC2)c2cccc(Cl)c2)C1=O` (stereo partly drawn) has an inhibition [9] of 43%.

`CC(CCN1CCC(c2ccccc2)CC1)(CN1C(=O)N[C@H](Cc2c[nH]c3ccccc23)C1=O)c1ccccc1` (stereo partly drawn) gave an inhibition [8] of 80%.

`CN1C(=O)N(CC(CCN2CCC(c3ccccc3)CC2)c2cccc(Cl)c2)C(=O)[C@H]1Cc1ccccc1` (stereo partly drawn) gave an inhibition [8] of 52%.

For `O=C1N[C@H](Cc2c[nH]c3ccccc23)C(=O)N1CC(CCN1CCC(c2ccccc2)CC1)c1ccccc1` (stereo in doubt; 22), the inhibition [8] was 71%.

With `O=C1N[C@H](Cc2ccccc2)C(=O)N1CC(CCN1CCC2(CC1)CSc1ccccc12)c1cccc(Cl)c1` (stereo partly drawn) the inhibition [10] was 24%.

In the case of `CCN(C(=O)OCc1ccccc1)C1CCN(CCC(C)(CN2C(=O)N[C@H](Cc3c[nH]c4ccccc34)C2=O)c2cccc(Cl)c2)CC1` (stereo partly drawn), the IC50 [4] is reported as 77 nM.

`C=CCN(C(=O)OCc1ccccc1)C1CCN(CCC(C)(CN2C(=O)N[C@H](Cc3c[nH]c4ccccc34)C2=O)c2ccccc2)CC1` (stereo partly drawn) gave an IC50 [1] of over 1000 nM, an IC50 [2] of over 1000 nM and an IC50 [3] of over 1000 nM. It also gave an IC50 [4] of 5 nM, an IC50 [5] of over 1000 nM and an IC95 [6] of over 3000 nM. The IC50 [7] was over 1000 nM.

`O=C1N[C@H](Cc2ccccc2)C(=O)N1CC(CCN1CCC2(CC1)C[S+]([O-])c1ccccc12)c1cccc(Cl)c1` (stereo partly drawn) showed an inhibition [10] of 39%.

`O=C1CC2(CCN(CCC(CN3C(=O)N[C@@H](c4ccccc4)C3=O)c3cccc(Cl)c3)CC2)c2ccccc21` (stereo partly drawn) was tested, and the inhibition [8] was 52%.

In the case of `O=C1N[C@H](Cc2c[nH]c3ccccc23)C(=O)N1CC(CCN1CCC(c2ccccc2)CC1)c1cccc(Cl)c1` (stereo in doubt), the IC50 [4] is reported as 25 nM.

With `O=C1N[C@H](Cc2c[nH]c3ccccc23)C(=O)N1CC(CCN1CCC(c2ccccc2)CC1)c1ccccc1` (stereo in doubt; 24) the inhibition [8] was 71%.

In the case of `CCN(C(=O)OCc1ccccc1)C1CCN(CCC(C)(CN2C(=O)N[C@H](Cc3c[nH]c4ccccc34)C2=O)c2ccccc2)CC1` (stereo partly drawn), the IC50 [1] is reported as over 1000 nM, the IC50 [2] is reported as over 1000 nM and the IC50 [3] is reported as over 1000 nM. The IC50 [4] was 4 nM, the IC50 [5] was over 1000 nM and the IC95 [6] was 12500 nM. It also gave an IC50 [7] of over 1000 nM.

`CS(=O)(=O)N1CC2(CCN(CCC(CN3C(=O)N[C@H](Cc4ccccc4)C3=O)c3cccc(Cl)c3)CC2)c2ccccc21` (stereo partly drawn) showed an inhibition [8] of 55%.

With `O=C1N[C@H](Cc2ccccc2)C(=O)N1CC(CCN1CCC(c2ccccc2)CC1)c1cccc(Cl)c1` (stereo partly drawn) the IC50 [4] was 250 nM.

`O=C1N[C@H](Cc2csc3ccccc23)C(=O)N1CC(CCN1CCC(c2ccccc2)CC1)c1cccc(Cl)c1` (stereo partly drawn) showed an inhibition [8] of 67%.

Work on `Cn1cc(C[C@H]2NC(=O)N(CC(CCN3CCC(c4ccccc4)CC3)c3cccc(Cl)c3)C2=O)c2ccccc21` (stereo partly drawn) yielded an inhibition [8] of 43%.

In the case of `C=CCN(C(=O)OCc1ccccc1)C1CCN(CCC(C)(CN2C(=O)N[C@H](Cc3c[nH]c4ccccc34)C2=O)c2cccc(Cl)c2)CC1` (stereo partly drawn), the IC50 [1] is reported as over 1000 nM, the IC50 [2] is reported as over 1000 nM and the IC50 [3] is reported as over 1000 nM. For the same compound, the IC50 [4] was 32 nM, the IC50 [5] was over 1000 nM and the IC50 [7] was over 1000 nM.

`CCN(C(=O)OCc1ccccc1)C1CCN(CCC(CN2C(=O)N[C@H](Cc3c[nH]c4ccccc34)C2=O)c2cccc(Cl)c2)CC1` (stereo partly drawn) showed an IC50 [1] of over 1000 nM, an IC50 [2] of over 1000 nM and an IC50 [3] of over 1000 nM. The IC50 [4] was 2 nM, the IC50 [5] was over 1000 nM and the IC95 [6] was 12500 nM. For the same compound, the IC50 [7] was over 1000 nM.

In the case of `O=C1N[C@H](Cc2c[nH]c3ccccc23)C(=O)N1CC(CCN1CCC(c2ccccc2)CC1)c1cccc(Cl)c1` (single isomer, unassigned), the IC50 [4] is reported as 80 nM.

`CCN(C(=O)OCc1ccccc1)C1CCN(CCC(CN2C(=O)N[C@H](Cc3c[nH]c4ccccc34)C2=O)c2ccccc2)CC1` (stereo partly drawn) showed an IC50 [1] of over 1000 nM, an IC50 [2] of over 1000 nM and an IC50 [3] of over 1000 nM. The IC50 [4] was 13 nM, the IC50 [5] was over 1000 nM and the IC95 [6] was 25000 nM. For the same compound, the IC50 [7] was over 1000 nM.

With `O=C1[C@@H](Cc2ccccc2)N(Cc2ccccc2)C(=O)N1CC(CCN1CCC(c2ccccc2)CC1)c1cccc(Cl)c1` (stereo partly drawn) the inhibition [8] was 40%.

`O=C1CC2(CCN(CCC(CN3C(=O)N[C@H](Cc4ccccc4)C3=O)c3cccc(Cl)c3)CC2)c2ccccc21` (stereo partly drawn) was tested, and the IC50 [4] was 200 nM.

Compound `CC(CCN1CCC(c2ccccc2)CC1)(CN1C(=O)N[C@H](Cc2c[nH]c3ccccc23)C1=O)c1cccc(Cl)c1` (stereo partly drawn) has an IC50 [4] of 100 nM.

In the case of `O=C1CC2(CCN(CCC(CN3C(=O)N[C@H](c4ccccc4)C3=O)c3cccc(Cl)c3)CC2)c2ccccc21` (stereo partly drawn), the IC50 [4] is reported as 606 nM.

With `C=CCN(C(=O)OCc1ccccc1)C1CCN(CCC(CN2C(=O)N[C@H](Cc3c[nH]c4ccccc34)C2=O)c2cccc(Cl)c2)CC1` (stereo partly drawn) the IC50 [1] was over 1000 nM, the IC50 [2] was over 1000 nM and the IC50 [3] was over 1000 nM. It also gave an IC50 [4] of 3 nM, an IC50 [5] of over 1000 nM and an IC95 [6] of 12500 nM. It also gave an IC50 [7] of over 1000 nM.
